Reference: patent publication US6927215B2, “Heterocyclic fluoroalkenyl thioethers and the use thereof as pesticides (I)” (Bayer Cropscience AG, priority 2000, dated 2005)

Columns and labels:
[1] = system: Boophilus microplus resistant (SP-resistant Parkhurst strain); assay: Test with Boophilus microplus resistant (SP-resistant Parkhurst strain), injection, oviposition of fertile eggs; type: in vivo
Description: (§1) Test with Boophilus Microplus Resistant (SP—Resistant Parkhurst Strain)
(§2) • Test animals: adult females which have sucked themselves full • Solvent: dimethyl sulphoxide
20 mg of active compound are dissolved in 1 ml of dimethyl sulphoxide, more dilute concentrations are prepared by dilution in the same solvent.
The test is carried out in 5 replications. 1 μl of the solutions is injected into the abdomen, and the animals are transferred into dishes and kept in a climatized room. After 7 days, the activity is checked by examination for oviposition of fertile eggs. Eggs whose fertility is not visible from the outside are stored in glass tubes in a controlled-environment cabinet until the larvae have hatched. An activity of 100% means that no tick has produced any fertile eggs.

[2] = system: Trichinella spiralis larvae; assay: Trichinella spiralis in-vitro; type: cell-based; set-up: key: 0 means no activity; 1 means weak activity; 2 means good activity; 3 means full activity; conditions: 5 days at 19° C.
Description: Trichinella spiralis In-vitro
• Test animals: Trichinella spiralis larvae • Solvent: dimethyl sulphoxide
Trichinella spiralis larvae are isolated from skeletal muscles and subcutaneous muscles of SPF/CFW1 mice and collected in aqueous 0.9% NaCl containing 20 μg of sisomycin/ml. Per determination, 20 larvae are incubated in 2 ml of a nutrient solution (20 g of Bacto Casitone/l, 10 g of yeast extract/l, 5 g of glucose/l, 0.8 g of KH2PO4/l, 0.8 g of K2HPO4; […] of sisomycin/ml and 1 μg of Canesten/ml; pH=7.2).
The incubation and the determination have been described in Martin et al., Pesticide Science (1996) 48, 343-349. 10 mg of the test compound are dissolved in 0.5 ml of the stated solvent, and such an amount of the resulting solution is added to the incubation medium that the desired concentration is reached. The controls contain only the solvent.
After an incubation time of 5 days at a temperature of 19° C., the experiment is terminated. The anthelmintic activity of a substance is categorized into 4 stages. 0 means no activity, 1 means weak activity, 2 means good activity and 3 means full activity (<50%, 50-75%, >75%, 100% of the larvae dead).

[3] = system: adults of Ctenocephalides felis; assay: Test with cat fleas/oral uptake; type: in vivo; conditions: after 28 h
Description: Test with Cat Fleas/Oral Uptake
• Test animals: adults of Ctenocephalides felis • Solvent: dimethyl sulphoxide (DMSO)
To produce a suitable formulation, a suitable solution of active compound is prepared from 20 mg of active compound and 1 ml of DMSO. 15 μl of this formulation are added to 3 ml of citrated cattle blood and stirred.
10 unfed adult fleas (Ctenocephalides felis, strain “Georgi”) are placed into a chamber (Ø3.2 cm) whose top and bottom are closed with gauze. A metal cylinder whose underside is covered with parafilm is placed onto the chamber. The cylinder contains 3 ml of blood/active compound formulation which can be taken up by the fleas through the parafilm membrane. Whereas the blood is warmed to 37° C., the temperature in the area of the flea chambers is adjusted to 25° C. Controls are mixed with the same volume of DMSO, without addition of a compound. The determinations are carried out in triplicate.
After 28 h, the mortality in % (=dead fleas) is determined.
Compounds which effect an at least 25% kill of the fleas within 28 h are judged to be effective.

[4] = system: Lucilia cuprina larvae; assay: Blowfly larvae test (development-inhibitory action); type: in vivo
Description: Blowfly Larvae Test (Development-Inhibitory Action)
• Test animals: Lucilia cuprina larvae • Solvent: dimethyl sulphoxide
(§3) 20 mg of active compound are dissolved in 1 ml of dimethyl sulphoxide, more dilute concentrations are prepared by dilution with distilled water.
About 20 Lucilia cuprina larvae are introduced into a test tube which contains about 1 cm^3 of horse meat and 0.5 ml of the preparation of active compound to be tested. After 24 hours and 48 hours, the efficacy of the preparation of active compound is determined. The test tubes are transferred into a beaker whose bottom is covered with sand. After a further 2 days, the test tubes are removed and the pupae are counted.
The efficacy of the preparation of active compound is assessed by the number of flies that have hatched after 1.5 times the period of development of an untreated control. 100% means that no flies have hatched; 0% means that all flies have hatched normally.

[5] = logP (pH2); type: physicochemical
[6] = system: Meloidogyne incognita egg/larvae; assay: Meloidogyne test; type: in vivo; conditions: active compound concentration 20 ppm; lettuce
Description: • Solvent: 8 parts by weight of acetone • Emulsifier: 1 part by weight of alkylaryl polyglycol ether
To produce a suitable preparation of active compound, 1 part by weight of active compound is mixed with the stated amounts of solvent and emulsifier, and the concentrate is diluted with water to the desired concentration.
Containers are filled with sand, solution of active compound, Meloidogyne incognita egg/larvae suspension and lettuce seeds. The lettuce seeds germinate and the plants develop. On the roots, galls are formed.
After the desired period of time, the nematicidal action is determined in % using gall formation as a measure. 100% means that no galls were found; 0% means that the number of galls on the treated plants corresponds to that of the untreated control.

[7] = system: caterpillars of the army worm (Spodoptera frugiperda); assay: Spodoptera frugiperda test; type: in vivo; conditions: active compound concentration 0.1%; after 7 days
Description: Spodoptera frugiperda Test
(§4) • Solvent: 30 parts by weight of dimethylformamide • Emulsifier: 1 part by weight of alkylaryl polyglycol ether
(§5) To produce a suitable preparation of active compound, 1 part by weight of active compound is mixed with the stated amounts of solvent and emulsifier, and the concentrate is diluted with emulsifier-containing water to the desired concentration.
Cabbage leaves (Brassica oleracea) are treated by being dipped into the preparation of active compound of the desired concentration and are populated with caterpillars of the army worm (Spodoptera frugiperda) while the leaves are still moist.
After the desired period of time, the kill in % is determined. 100% means that all caterpillars have been killed; 0% means that none of the caterpillars have been killed.

[8] = system: larvae of the mustard beetle (Phaedon cochleariae); assay: Phaedon larvae test; type: in vivo; conditions: active compound concentration 0.1%; after 7 days
Description: as §4, §5
Cabbage leaves (Brassica oleracea) are treated by being dipped into the preparation of active compound of the desired concentration and are populated with larvae of the mustard beetle (Phaedon cochleariae) while the leaves are still moist.
After the desired period of time, the kill in % is determined. 100% means that all beetle larvae have been killed; 0% means that none of the beetle larvae have been killed.

[9] = system: peach aphid (Myzus persicae); assay: Myzus test; type: in vivo; conditions: active compound concentration 0.1%; after 6 days
Description: as §4, §5
Cabbage leaves (Brassica oleracea) which are heavily infested by the peach aphid (Myzus persicae) are treated by being dipped into the preparation of active compound of the desired concentration.
After the desired period of time, the kill in % is determined. 100% means that all aphids have been killed; 0% means that none of the aphids have been killed.

[10] = system: adult Musca domestica, Reichswald strain (OP, SP, carbamate-resistant); assay: Test with flies (Musca domestica); type: in vivo; conditions: active compound concentration 100 ppm
Description: Test with Flies (Musca domestica)
• Test animals: adult Musca domestics, Reichswald strain (OP, SP, carbamate-resistant) • Solvent: dimethyl sulphoxide
as §3
2 ml of this active compound preparation are pipetted onto filter paper discs (Ø9.5 cm) in petri dishes of corresponding dimensions. After the filter discs have been dried, 25 test animals are transferred into the petri dishes, which are then covered.
After 1, 3, 5, 24 and 48 hours, the activity of the active compound preparation is determined. 100% means that all flies have been killed; 0% means that none of the flies have been killed.

[11] = system: Boophilus microplus resistant (SP-resistant Parkhurst strain); assay: Test with Boophilus microplus resistant (SP-resistant Parkhurst strain), dipping; type: in vivo; conditions: active compound concentration 100 ppm; dipped for 1 minute
Description: as §1, §2, §3
10 adult Boophilus microplus res. are dipped for 1 minute into the preparation of active compound to be tested. The animals are transferred into plastic beakers and kept in a climatized room, and the kill rate is then determined.
100% means that all ticks have been killed; 0% means that none of the ticks have been killed.

[12] = system: greenhouse red spider mite (Tetranychus urticae); assay: Tetranychus test (OP-resistant/dip treatment); type: in vivo; conditions: active compound concentration 0.1%; after 7 days
Description: Tetranychus Test (OP-Resistant/Dip Treatment)
as §4, §5
Bean plants (Phaseolus vulgaris) which are heavily infested by all stages of the greenhouse red spider mite (Tetranychus urticae) are dipped into a preparation of active compound of the desired concentration.
After the desired period of time, the effect in % is determined. 100% means that all spider mites have been killed; 0% means that none of the spider mites have been killed.

[13] = 0.8 μg per animal, injection, after 7 days
[14] = 4 μg per animal, injection, after 7 days
[15] = 20 μg per animal, injection, after 7 days
[16] = active compound concentration 100 ppm
[17] = active compound concentration 20 ppm
[18] = active compound concentration 4 ppm, injection, after 7 days
[19] = active compound concentration 20 ppm, injection, after 7 days

SMILES | kill (no fertile eggs) [1, 13] [%] | kill (no fertile eggs) [1, 14] [%] | kill (no fertile eggs) [1, 15] [%] | kill (no fertile eggs) [1, 16] [%] | anthelmintic activity class (larvae dead) [2, 16] | kill (mortality) [3, 17] [%] | kill (mortality) [3, 16] [%] | kill (no flies hatched) [4, 16] [%] | logP (pH2) [5] | kill (no fertile eggs) [1, 18] [%] | kill (no fertile eggs) [1, 19] [%] | further results
CC1SC(SCCC=C(F)F)=NS1(=O)=O (racemic) [Example 8] | 100 | 100 | 100 | 100 | no activity | 79 | 91 | 100 | – | – | – | –
CC1SC(SCCCCC(F)=C(F)F)=NS1(=O)=O (racemic) [Example 9] | – | – | – | – | – | – | – | – | 3.24 | – | – | –
CC1SC(SCCCCC=C(F)F)=NS1(=O)=O (racemic) [Example 10] | 100 | 100 | 100 | 100 | no activity | 83 | 95 | 100 | 3.31 | – | – | –
O=S1(=O)CSC(SCCC(F)=C(F)F)=N1 [Example 1, 5-(4,4,3-trifluorobutenylthio)-1,3,4-dithiazoline 3,3-dioxide] | – | – | – | – | – | – | – | 100 | – | 100 | 100 | nematicidal action (activity) using gall formation as a measure [6]: 100%; melting point: 50 °C; kill (no flies hatched) [4, 17]: 100%
O=S1(=O)CSC(SCCC=C(F)F)=N1 [Example 2] | – | – | – | – | – | – | 100 | – | 2.24 | 100 | 100 | kill [7]: 100%; kill [8]: 100%; nematicidal action (activity) using gall formation as a measure [6]: 100%; kill [9]: 100%; kill [10]: 60%; kill [11]: 90%
O=S1(=O)CSC(SCCCCC(F)=C(F)F)=N1 [Example 3] | – | – | – | – | – | – | – | 100 | 2.93 | 100 | 100 | anthelmintic activity class (larvae dead) ([2]; active compound concentration 10 ppm): weak activity (1 means weak activity); kill (no flies hatched) [4, 17]: 100%
O=S1(=O)CSC(SCCCCC=C(F)F)=N1 [Example 4] | – | – | – | – | no activity | – | 100 | – | 2.99 | 100 | 100 | kill [8]: 100%; kill [12]: 100%; kill [9]: 100%; kill [10]: 40%; kill [11]: 100%
O=S1(=O)CCSC(SCCCCC=C(F)F)=N1 [Example 6] | 100 | 100 | 100 | 100 | no activity | 73 | 95 | 100 | – | – | – | –
O=S1(=O)CCSC(SCCC=C(F)F)=N1 [Example 11] | 100 | 100 | 100 | – | no activity | – | – | – | – | – | – | –
O=S1(=O)CCCSC(SCCC(F)=C(F)F)=N1 [Example 13] | 100 | 100 | 100 | – | – | – | – | – | – | – | – | –
O=S1(=O)CCCSC(SCCCCC=C(F)F)=N1 [Example 16] | 100 | 100 | 100 | 100 | no activity | 89 | 91 | – | – | – | – | –
